# Assay: Phase I clinical trial: safety, related treatment-emergent adverse events, patients n (%)
# Format: in vivo
# Method: Safety, maximum tolerated dose (MTD), pharmacokinetics (PK) and preliminary antitumor activity were evaluated.
# Pharmacodynamic (PD) endpoints were evaluated in surrogate (peripheral blood cells [PBCs], skin) and tumor tissues for the phosphorylation of TORC1-dependent markers (4EBP1/S6), and TORC2-dependent markers (AKT/PRAS40).
smiles,measurement,setting,value
CC(C)n1nc(-c2ccc3oc(N)nc3c2)c2c(N)ncnc21 [compound A],Asthenia,"6 mg/3W, N = 3",0 (0%)
same,Asthenia (second line),"6 mg/3W, N = 3",0 (0%)
same,Catheter site inflammation,"6 mg/3W, N = 3",0 (0%)
same,Catheter site pain,"6 mg/3W, N = 3",0 (0%)
same,Decreased appetite,"6 mg/3W, N = 3",0 (0%)
same,Diarrhoea,"6 mg/3W, N = 3",0 (0%)
same,Dry skin,"6 mg/3W, N = 3",0 (0%)
same,Dysgeusia,"6 mg/3W, N = 3",0 (0%)
same,Dyspnoea,"6 mg/3W, N = 3",0 (0%)
same,Fatigue,"6 mg/3W, N = 3",0 (0%)
same,Headache,"6 mg/3W, N = 3",0 (0%)
same,Hypercholesterolaemia,"6 mg/3W, N = 3",0 (0%)
same,Hypertransaminasaemia,"6 mg/3W, N = 3",0 (0%)
same,Hypertriglyceridaemia,"6 mg/3W, N = 3",0 (0%)
same,Hypomagnesaemia,"6 mg/3W, N = 3",0 (0%)
same,Hypotension,"6 mg/3W, N = 3",0 (0%)
same,Low fever,"6 mg/3W, N = 3",0 (0%)
same,Lymphopenia,"6 mg/3W, N = 3",0 (0%)
same,Palmar-plantar erythrodysaesthesia syndrome,"6 mg/3W, N = 3",0 (0%)
same,Patients Reporting at Least One Related TEAE,"6 mg/3W, N = 3",3 (100%)
same,Pyrexia,"6 mg/3W, N = 3",0 (0%)
same,Rash macular,"6 mg/3W, N = 3",0 (0%)
same,Urinary tract infection,"6 mg/3W, N = 3",0 (0%)
same,Nausea,"7 mg/5W, N = 3",0 (0%)
same,Nausea (second line),"7 mg/5W, N = 3",1 (33%)
same,Urine tract infection,"7 mg/5W, N = 3",0 (0%)
same,Vomiting,"7 mg/5W, N = 3",0 (0%)
same,Patients Reporting at Least One Related TEAE,"7 mg/week, N = 3",3 (100%)
same,Alanine aminotransferase increased,"9 mg/3W, N = 5",0 (0%)
same,Asthenia,"9 mg/3W, N = 5",1 (20%)
same,Asthenia (second line),"9 mg/3W, N = 5",0 (0%)
same,Catheter site inflammation,"9 mg/3W, N = 5",0 (0%)
same,Catheter site pain,"9 mg/3W, N = 5",0 (0%)
same,Decreased appetite,"9 mg/3W, N = 5",0 (0%)
same,Diarrhoea,"9 mg/3W, N = 5",1 (20%)
same,Dry skin,"9 mg/3W, N = 5",1 (20%)
same,Dysgeusia,"9 mg/3W, N = 5",0 (0%)
same,Dyspnoea,"9 mg/3W, N = 5",1 (20%)
same,Fatigue,"9 mg/3W, N = 5",0 (0%)
same,Headache,"9 mg/3W, N = 5",0 (0%)
same,Hyperbilirubinaemia,"9 mg/3W, N = 5",0 (0%)
same,Hypercholesterolaemia,"9 mg/3W, N = 5",1 (20%)
same,Hyperglycaemia,"9 mg/3W, N = 5",1 (20%)
same,Hypertransaminasaemia,"9 mg/3W, N = 5",1 (20%)
same,Hypertriglyceridaemia,"9 mg/3W, N = 5",1 (20%)
same,Hypomagnesaemia,"9 mg/3W, N = 5",1 (20%)
same,Hypotension,"9 mg/3W, N = 5",1 (20%)
same,Low fever,"9 mg/3W, N = 5",0 (0%)
same,Lymphopenia,"9 mg/3W, N = 5",1 (20%)
same,Mucosal inflammation,"9 mg/3W, N = 5",2 (40%)
same,Nausea,"9 mg/3W, N = 5",2 (40%)
same,Palmar-plantar erythrodysaesthesia syndrome,"9 mg/3W, N = 5",1 (20%)
same,Patients Reporting at Least One Related TEAE,"9 mg/3W, N = 5",4 (80%)
same,Platelet count decreased,"9 mg/3W, N = 5",0 (0%)
same,Pruritus,"9 mg/3W, N = 5",2 (40%)
same,Pyrexia,"9 mg/3W, N = 5",0 (0%)
same,Rash,"9 mg/3W, N = 5",3 (60%)
same,Rash macular,"9 mg/3W, N = 5",0 (0%)
same,Urinary tract infection,"9 mg/3W, N = 5",1 (20%)
same,Vomiting,"9 mg/3W, N = 5",2 (40%)
same,Diarrhoea,"10 mg/5W, N = 3",0 (0%)
same,Nausea (second line),"10 mg/5W, N = 3",0 (0%)
same,Rash,"10 mg/5W, N = 3",0 (0%)
same,Mucosal inflammation,"10 mg/week, N = 3",0 (0%)
same,Alanine aminotransferase increased,"12 mg/3W, N = 3",0 (0%)
same,Asthenia (second line),"12 mg/3W, N = 3",0 (0%)
same,Diarrhoea,"12 mg/3W, N = 3",0 (0%)
same,Dry skin,"12 mg/3W, N = 3",0 (0%)
same,Dyspnoea,"12 mg/3W, N = 3",0 (0%)
same,Fatigue,"12 mg/3W, N = 3",0 (0%)
same,Headache,"12 mg/3W, N = 3",0 (0%)
same,Hyperbilirubinaemia,"12 mg/3W, N = 3",0 (0%)
same,Hypercholesterolaemia,"12 mg/3W, N = 3",0 (0%)
same,Hypertransaminasaemia,"12 mg/3W, N = 3",0 (0%)
same,Hypertriglyceridaemia,"12 mg/3W, N = 3",0 (0%)
same,Hypomagnesaemia,"12 mg/3W, N = 3",0 (0%)
same,Hypotension,"12 mg/3W, N = 3",0 (0%)
same,Low fever,"12 mg/3W, N = 3",0 (0%)
same,Lymphopenia,"12 mg/3W, N = 3",0 (0%)
same,Palmar-plantar erythrodysaesthesia syndrome,"12 mg/3W, N = 3",0 (0%)
same,Platelet count decreased,"12 mg/3W, N = 3",0 (0%)
same,Pyrexia,"12 mg/3W, N = 3",0 (0%)
same,Rash,"12 mg/3W, N = 3",0 (0%)
same,Urinary tract infection,"12 mg/3W, N = 3",0 (0%)
same,Vomiting,"12 mg/3W, N = 3",0 (0%)
same,Patients Reporting at Least One Related TEAE,"15 mg/week, N = 3",3 (100%)
same,Alanine aminotransferase increased,"16 mg/3W, N = 3",0 (0%)
same,Asthenia (second line),"16 mg/3W, N = 3",1 (33%)
same,Catheter site inflammation,"16 mg/3W, N = 3",0 (0%)
same,Catheter site pain,"16 mg/3W, N = 3",0 (0%)
same,Decreased appetite,"16 mg/3W, N = 3",0 (0%)
same,Dry skin,"16 mg/3W, N = 3",0 (0%)
same,Dysgeusia,"16 mg/3W, N = 3",0 (0%)
same,Dyspnoea,"16 mg/3W, N = 3",0 (0%)
same,Hyperbilirubinaemia,"16 mg/3W, N = 3",0 (0%)
same,Hypercholesterolaemia,"16 mg/3W, N = 3",0 (0%)
same,Hypertransaminasaemia,"16 mg/3W, N = 3",0 (0%)
same,Hypertriglyceridaemia,"16 mg/3W, N = 3",0 (0%)
same,Hypomagnesaemia,"16 mg/3W, N = 3",0 (0%)
same,Hypotension,"16 mg/3W, N = 3",0 (0%)
same,Lymphopenia,"16 mg/3W, N = 3",0 (0%)
same,Nausea,"16 mg/3W, N = 3",0 (0%)
same,Palmar-plantar erythrodysaesthesia syndrome,"16 mg/3W, N = 3",0 (0%)
same,Platelet count decreased,"16 mg/3W, N = 3",0 (0%)
same,Pruritus,"16 mg/3W, N = 3",0 (0%)
same,Rash,"16 mg/3W, N = 3",0 (0%)
same,Rash macular,"16 mg/3W, N = 3",0 (0%)
same,Urinary tract infection,"16 mg/3W, N = 3",0 (0%)
same,Vomiting,"16 mg/3W, N = 3",0 (0%)
same,Dose limiting toxicity,20 mg Q3D,Mucositis
same,Nausea,"30 mg/week, N = 3",3 (100%)
same,Patients Reporting at Least One Related TEAE,"30 mg/week, N = 3",3 (100%)
same,Dose limiting toxicity,40 mg QW,Asthenia
same,Dose limiting toxicities,"40 mg QW, 20 mg QD×3d QW and 13 mg QD×5d QW cohorts",Grade (G) 3 asthenia and G3 mucositis
same,Catheter site inflammation,"Total QD Dosing, N = 25",0 (0%)
same,Catheter site pain,"Total QD Dosing, N = 25",0 (0%)
same,Diarrhea,"Total QD Dosing, N = 25",0 (0%)
same,Fatigue,"Total QD Dosing, N = 25",0 (0%)
same,Headache,"Total QD Dosing, N = 25",0 (0%)
same,Hyperbilirubinaemia,"Total QD Dosing, N = 25",0 (0%)
same,Hypertransaminasaemia,"Total QD Dosing, N = 25",0 (0%)
same,Hypertriglyceridaemia,"Total QD Dosing, N = 25",0 (0%)
same,Hypomagnesaemia,"Total QD Dosing, N = 25",0 (0%)
same,Hypotension,"Total QD Dosing, N = 25",0 (0%)
same,Low fever,"Total QD Dosing, N = 25",0 (0%)
same,Malaise,"Total QD Dosing, N = 25",0 (0%)
same,Nausea,"Total QD Dosing, N = 25",0 (0%)
same,Oral discomfort,"Total QD Dosing, N = 25",0 (0%)
same,Palmar-plantar erythrodysaesthesia syndrome,"Total QD Dosing, N = 25",0 (0%)
same,Platelet count decreased,"Total QD Dosing, N = 25",0 (0%)
same,Pyrexia,"Total QD Dosing, N = 25",0 (0%)
same,Rash,"Total QD Dosing, N = 25",0 (0%)
same,Rash macular,"Total QD Dosing, N = 25",0 (0%)
same,Urinary tract infection,"Total QD Dosing, N = 25",0 (0%)
same,Urine tract infection,"Total QD Dosing, N = 25",0 (0%)
same,Vomiting,"Total QD Dosing, N = 25",0 (0%)
same,Weakness,"Total QD Dosing, N = 25",0 (0%)
same,Asthenia (second line),"Total QDx3d QW, N = 14",1 (7%)
same,Coagulopathy,"Total QDx3d QW, N = 14",0 (0%)
same,Confusional state,"Total QDx3d QW, N = 14",0 (0%)
same,Cough,"Total QDx3d QW, N = 14",0 (0%)
same,Diarrhea,"Total QDx3d QW, N = 14",0 (0%)
same,Dizziness,"Total QDx3d QW, N = 14",0 (0%)
same,Dyspnoea exertional,"Total QDx3d QW, N = 14",0 (0%)
same,Eye infection,"Total QDx3d QW, N = 14",0 (0%)

# From patent publication US20130209543A1, “ENHANCED TREATMENT REGIMENS USING MTOR INHIBITORS” (Intellikine LLC, priority 2011, published 2013)
